What was measured:
freely moving rats = assay: Tail-flick latency (TFL) test; format: in vivo, rat; conditions: for Tail-Flick latency: vehicle-pretreated rats, morphine 10 mg/kg IV
[1] = system: freely moving adult male Sprague-Dawley rats; assay: Whole-body plethysmography of ventilatory parameters in morphine-treated rats; conditions: morphine 10 mg/kg IV; for EF50, ml/sec - Total Response (% change) / Expiratory Drive (TV/Te), ml/sec - Total Response (% change) / Expiratory Time (Te), sec - Total Response (% change) / Frequency, breaths/min - Total Response (% change) / Inspiratory Drive (TV/Ti), ml/sec - Total Response (% change) / Inspiratory Time (Ti), sec - Total Response (% change) / Inspiratory Time/Expiratory Time - Total Response (% change) / Minute Ventilation, ml/min - Total Response (% change) / Peak Expiratory Flow, ml/sec - Total Response (% change) / Peak Expiratory Flow/Peak Inspiratory Flow - Total Response (% change) / Peak Inspiratory Flow, ml/sec - Total Response (% change) / Tidal Volume (TV), ml - Total Response (% change): over the 15 min before drug injection
[2] = freely moving rats, then d-cystine diEE 500 μmol/kg IV 15 min later
[3] = rats that subsequently received D-Cystine diEE
[4] = rats that subsequently received vehicle, D-Cystine diEE study
[5] = rats that subsequently received D-Cystine
[6] = rats that subsequently received L-NACme
[7] = rats that subsequently received vehicle, D-Cystine study
[8] = rats that subsequently received vehicle, L-NACme study

CN1CC[C@]23c4c5ccc(O)c4O[C@H]2[C@@H](O)C=C[C@H]3[C@H]1C5 [Morphine, morphine]
duration of the increase in TFL (freely moving rats; morphine 10 mg/kg IV in vehicle-treated rats): at least 4 h
Tail-Flick latency (freely moving rats; post-morphine - 30 min): 12 ± 0.0 s
Tail-Flick latency (freely moving rats; post-morphine - 60 min): 12 ± 0.0 s
Tail-Flick latency (freely moving rats; post-morphine - 90 min): 11.7 ± 0.2 s
Tail-Flick latency (freely moving rats; post-morphine - 120 min): 11.1 ± 0.2 s
Tail-Flick latency (freely moving rats; post-morphine - 180 min): 8.3 ± 0.3 s
Tail-Flick latency (freely moving rats; post-morphine - 210 min): 5.6 ± 0.3 s
Tail-Flick latency (freely moving rats; post-morphine - 240 min): 4.3 ± 0.3 s
Tail-Flick latency (freely moving rats; post-morphine - 360 min): 3.3 ± 0.3 s
changes in EF50 [1, 2]: sustained increase
changes in expiratory drive (TV/Te) [1, 2]: relatively pronounced but shorter-lived decrease
changes in expiratory time (Te) [1, 2]: decreases in Te
changes in frequency of breathing (Freq) [1, 2]: brief increase in Freq that was followed a relatively transient decrease
changes in inspiratory drive (TV/Ti) [1, 2]: prompt and sustained decrease
changes in inspiratory time (Ti) [1, 2]: sustained increases in Ti
changes in minute ventilation (MV) [1, 2]: transient increase in MV that was followed by a sustained decrease
changes in peak expiratory flow (PEF) [1, 2]: lesser decreases
changes in peak inspiratory flow (PIF) [1, 2]: pronounced and sustained decrease
changes in tidal volume (TV) [1, 2]: prompt and sustained decrease
EF50, ml/sec - Total Response (% change) [1, 3]: +33.4 ± 15.0 %
Expiratory Drive (TV/Te), ml/sec - Total Response (% change) [1, 3]: −14.6 ± 10.2%
Expiratory Time (Te), sec - Total Response (% change) [1, 3]: −2.0 ± 6.1%
Frequency, breaths/min - Total Response (% change) [1, 3]: −1.9 ± 6.6%
Inspiratory Drive (TV/Ti), ml/sec - Total Response (% change) [1, 3]: −44.5 ± 5.5 %
Inspiratory Time (Ti), sec - Total Response (% change) [1, 3]: +40.2 ± 6.3 %
Inspiratory Time/Expiratory Time - Total Response (% change) [1, 3]: −27.1 ± 6.2 %
Minute Ventilation, ml/min - Total Response (% change) [1, 3]: −28.4 ± 6.4 %
Peak Expiratory Flow, ml/sec - Total Response (% change) [1, 3]: −16.2 ± 5.7 %
Peak Expiratory Flow/Peak Inspiratory Flow - Total Response (% change) [1, 3]: +21.5 ± 6.7 %
Peak Inspiratory Flow, ml/sec - Total Response (% change) [1, 3]: −29.7 ± 2.7 %
Tidal Volume (TV), ml - Total Response (% change) [1, 3]: −26.3 ± 7.4 %
EF50, ml/sec - Total Response (% change) [1, 4]: +30.5 ± 14.7 %
Expiratory Drive (TV/Te), ml/sec - Total Response (% change) [1, 4]: −22.3 ± 13.6%
Expiratory Time (Te), sec - Total Response (% change) [1, 4]: −4.7 ± 6.0%
Frequency, breaths/min - Total Response (% change) [1, 4]: +0.3 ± 4.3%
Inspiratory Drive (TV/Ti), ml/sec - Total Response (% change) [1, 4]: −44.3 ± 7.1 %
Inspiratory Time (Ti), sec - Total Response (% change) [1, 4]: +38.6 ± 2.9 %
Inspiratory Time/Expiratory Time - Total Response (% change) [1, 4]: −24.1 ± 4.7 %
Minute Ventilation, ml/min - Total Response (% change) [1, 4]: −28.6 ± 7.2 %
Peak Expiratory Flow, ml/sec - Total Response (% change) [1, 4]: −17.4 ± 6.1 %
Peak Expiratory Flow/Peak Inspiratory Flow - Total Response (% change) [1, 4]: +27.6 ± 7.0 %
Peak Inspiratory Flow, ml/sec - Total Response (% change) [1, 4]: −29.5 ± 8.1 %
Tidal Volume (TV), ml - Total Response (% change) [1, 4]: −29.3 ± 7.6 %
Frequency: Morphine - first 15 min response (%) [1, 5]: −4.7 ± 3.1%
Frequency: Morphine - peak (+) response (%) [1, 5]: +62 ± 7 %
Frequency: Morphine peak (−) response (%) [1, 5]: −23 ± 4 %
Minute Ventilation: Morphine - first 15 min response (%) [1, 5]: −38 ± 5 %
Minute Ventilation: Morphine - peak (+) response (%) [1, 5]: +14 ± 3 %
Minute Ventilation: Morphine peak (−) response (%) [1, 5]: −61 ± 8 %
Tidal Volume: Morphine - first 15 min response (%) [1, 5]: −35 ± 5 %
Tidal Volume: Morphine - peak (+) response (%) [1, 5]: −30 ± 4 %
Tidal Volume: Morphine peak (−) response (%) [1, 5]: −51 ± 6 %
EF50, ml/sec - Peak Responses (% change) [1, 3]: +122 ± 27 %
Expiratory Drive (TV/Te), ml/sec - Peak Responses (% change) [1, 3]: −46.2 ± 7.8 %
Expiratory Time (Te), sec - Peak Responses (% change) [1, 3]: −32.4 ± 17.6%
Frequency, breaths/min - Peak Responses (% change) [1, 3]: −20.0 ± 4.5 %
Inspiratory Drive (TV/Ti), ml/sec - Peak Responses (% change) [1, 3]: −53.7 ± 6.0 %
Inspiratory Time (Ti), sec - Peak Responses (% change) [1, 3]: +41.3 ± 7.1 %
Inspiratory Time/Expiratory Time - Peak Responses (% change) [1, 3]: −41.7 ± 7.8 %
Minute Ventilation, ml/min - Peak Responses (% change) [1, 3]: −48.5 ± 6.0 %
Peak Expiratory Flow, ml/sec - Peak Responses (% change) [1, 3]: −34.8 ± 6.7 %
Peak Expiratory Flow/Peak Inspiratory Flow - Peak Responses (% change) [1, 3]: +26.7 ± 5.4 %
Peak Inspiratory Flow, ml/sec - Peak Responses (% change) [1, 3]: −43.2 ± 2.7 %
Tidal Volume (TV), ml - Peak Responses (% change) [1, 3]: −35.8 ± 6.9 %
Frequency: Morphine - first 15 min response (%) [1, 6]: −4.9 ± 2.8%
Frequency: Morphine - peak (+) response (%) [1, 6]: +42 ± 6 %
Frequency: Morphine peak (−) response (%) [1, 6]: −22 ± 4 %
Minute Ventilation: Morphine - first 15 min response (%) [1, 6]: −35 ± 3 %
Minute Ventilation: Morphine - peak (+) response (%) [1, 6]: +20 ± 6 %
Minute Ventilation: Morphine peak (−) response (%) [1, 6]: −54 ± 4 %
Tidal Volume: Morphine - first 15 min response (%) [1, 6]: −34 ± 3 %
Tidal Volume: Morphine - peak (+) response (%) [1, 6]: −16 ± 6 %
Tidal Volume: Morphine peak (−) response (%) [1, 6]: −40 ± 6 %
EF50, ml/sec - Peak Responses (% change) [1, 4]: +133 ± 42 %
Expiratory Drive (TV/Te), ml/sec - Peak Responses (% change) [1, 4]: −51.5 ± 10.1 %
Expiratory Time (Te), sec - Peak Responses (% change) [1, 4]: −29.3 ± 17.1%
Frequency, breaths/min - Peak Responses (% change) [1, 4]: −21.5 ± 3.4 %
Inspiratory Drive (TV/Ti), ml/sec - Peak Responses (% change) [1, 4]: −52.7 ± 5.4 %
Inspiratory Time (Ti), sec - Peak Responses (% change) [1, 4]: +37.9 ± 3.0 %
Inspiratory Time/Expiratory Time - Peak Responses (% change) [1, 4]: −38.0 ± 4.2 %
Minute Ventilation, ml/min - Peak Responses (% change) [1, 4]: −51.2 ± 6.3 %
Peak Expiratory Flow, ml/sec - Peak Responses (% change) [1, 4]: −38.1 ± 8.5 %
Peak Expiratory Flow/Peak Inspiratory Flow - Peak Responses (% change) [1, 4]: +30.2 ± 3.4 %
Peak Inspiratory Flow, ml/sec - Peak Responses (% change) [1, 4]: −45.6 ± 7.0 %
Tidal Volume (TV), ml - Peak Responses (% change) [1, 4]: −42.9 ± 8.7 %
Frequency: Morphine - first 15 min response (%) [1, 7]: −3.8 ± 2.6%
Frequency: Morphine - peak (+) response (%) [1, 7]: +57 ± 8 %
Frequency: Morphine peak (−) response (%) [1, 7]: −21 ± 3 %
Minute Ventilation: Morphine - first 15 min response (%) [1, 7]: −39 ± 4 %
Minute Ventilation: Morphine - peak (+) response (%) [1, 7]: +9 ± 3 %
Minute Ventilation: Morphine peak (−) response (%) [1, 7]: −60 ± 9 %
Tidal Volume: Morphine - first 15 min response (%) [1, 7]: −37 ± 6 %
Tidal Volume: Morphine - peak (+) response (%) [1, 7]: −32 ± 5 %
Tidal Volume: Morphine peak (−) response (%) [1, 7]: −49 ± 5 %
Frequency: Morphine - first 15 min response (%) [1, 8]: −4.0 ± 2.1%
Frequency: Morphine - peak (+) response (%) [1, 8]: +47 ± 6 %
Frequency: Morphine peak (−) response (%) [1, 8]: −24 ± 3 %
Minute Ventilation: Morphine - first 15 min response (%) [1, 8]: −36 ± 3 %
Minute Ventilation: Morphine - peak (+) response (%) [1, 8]: +19 ± 5 %
Minute Ventilation: Morphine peak (−) response (%) [1, 8]: −53 ± 5 %
Tidal Volume: Morphine - first 15 min response (%) [1, 8]: −33 ± 4 %
Tidal Volume: Morphine - peak (+) response (%) [1, 8]: −19 ± 3 %
Tidal Volume: Morphine peak (−) response (%) [1, 8]: −38 ± 5 %
